Test results from patent US20020107282A1, “Cosmetic composition containing an aminophenol derivative and an isoflavonoid” (L'OREAL, priority 2000, published 2002).

System: fungal tyrosinase
Assay: in vitro inhibition of the activity of fungal tyrosinase (OD at 475 nm)
Format: biochemical
Conditions: active agent alone in ethanol, C1 = 1.25 × 10^−4 M
Experimental: This test consists in measuring the absorbence (optical density OD) at 475 nm as a function of time for each of the depigmenting active agents tested. These agents are dissolved (at various concentrations) in a suitable solvent in the presence of a phosphate buffer, 1 ml of L-tyrosine at 2.0×10^−3 M in a phosphate buffer, 0.1 ml of L-Dopa at 1.0×10^−4 M in a phosphate buffer and 50 μl of a fungal tyrosinase solution at 1 g/l in a phosphate buffer, compared with a control consisting of the solvent used at the same concentration in the phosphate buffer. A percentage of inhibition is then determined by the following equation: [formula] […] These two active agents in the concentrations C1 and C2 found above are then mixed together. The theoretical percentage of inhibition of the mixture (or theoretical IC), corresponding to the sum of the percentages of inhibition observed for the individual compounds, is then calculated, and the percentage of inhibition obtained (or measured IC) is measured under the same experimental conditions as for the compounds tested separately.

What does the source list for `CCOC(=O)Nc1ccc(O)cc1` [N-ethoxy-carbonyl-4-aminophenol, N-ethyloxycarbonyl-4-aminophenol]?
IC obtained (%) (inhibition actually obtained): 23.5%; Theoretical IC (%) (inhibition value that should be observed (close to 25%)): 24.8%
